# In ChEMBL document CHEMBL4043248, “Structure-activity relationship study of β-oxidation resistant indole-based 5-oxo-6,8,11,14-eicosatetraenoic acid (5-oxo-ETE) receptor antagonists” (Bioorg Med Chem Lett, 2017):
# Target: Oxoeicosanoid receptor 1 (Homo sapiens, UniProt Q8TDS5)
# Assay: Antagonist activity at OXE receptor in human neutrophils assessed as inhibition of 5-oxo-ETE-induced calcium mobilization incubated for 2 mins followed by 5-oxo-ETE addition measured after 1 min by fluorescence assay
# Format: functional
# Chain of Oxoeicosanoid receptor 1 (Q8TDS5 whole entry): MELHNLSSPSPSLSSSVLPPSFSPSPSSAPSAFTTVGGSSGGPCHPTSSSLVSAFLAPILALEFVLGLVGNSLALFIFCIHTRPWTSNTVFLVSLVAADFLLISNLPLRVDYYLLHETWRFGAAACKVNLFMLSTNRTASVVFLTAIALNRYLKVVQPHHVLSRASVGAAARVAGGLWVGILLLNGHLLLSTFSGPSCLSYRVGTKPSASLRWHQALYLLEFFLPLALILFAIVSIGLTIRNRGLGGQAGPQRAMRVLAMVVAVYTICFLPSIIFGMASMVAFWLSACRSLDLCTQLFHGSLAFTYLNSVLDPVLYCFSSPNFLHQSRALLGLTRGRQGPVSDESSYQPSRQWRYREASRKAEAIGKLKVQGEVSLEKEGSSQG
row,SMILES,IC50 [nM]
1,CCCCCCc1c(C(=O)CC(C)CC(=O)O)c2cc(Cl)ccc2n1C (stereo unspecified),16 to 20
2,CCCCCCc1c(C(=O)C[C@@H](C)CC(=O)O)c2cc(Cl)ccc2n1C,2700
3,CCCCCCc1c(C(=O)C(C)(C)CCC(=O)O)c2cc(Cl)ccc2n1C,8150
4,CCCCCCc1c(C(=O)c2cccc(C(=O)O)c2)c2cc(Cl)ccc2n1C,1120
5,CCCCCCc1c(C(=O)CC(C)(C)CC(=O)O)c2cc(Cl)ccc2n1C,1330
6,CCCCCCc1c(C(=O)CC2(CC(=O)O)CC2)c2cc(Cl)ccc2n1C,580
7,CCCCCCCCCCCc1c(C(=O)CC(C)CC(=O)O)c2cc(Cl)ccc2n1C (stereo unspecified),23
8,CCCCCCc1c(C(=O)c2ccc(C(=O)O)cc2)c2cc(Cl)ccc2n1C,1360
9,CCCCCCc1c(C(=O)CC2(CC(=O)O)CCC2)c2cc(Cl)ccc2n1C,720
10,CCCCCCc1c(C(=O)COCC(=O)O)c2cc(Cl)ccc2n1C,5500
11,CCCCCCc1c(C(=O)CCC(C)(C)C(=O)O)c2cc(Cl)ccc2n1C,4060
